Test results from patent publication US8975384B2, “Tag peptide and use thereof” (Osaka University, priority 2008, dated 2015).
Like-named read-outs stand apart in the source and are kept apart here.

Columns and labels:
P20.1 antibody [1] = test: Epitope analysis by ELISA with P4-Fn proteins and Ala mutants; assay type: binding, mouse; details: coated Fn fusion protein 10 μg/mL, P20.1 antibody 2 to 5 μg/mL, absorbance 405 nm
Protocol: The minimum peptide sequence required for recognition by the P20.1 antibody was identified by the ELISA method using various kinds of P4-Fn proteins prepared in the above (2-1). The protocol is as follows.
(1) A P4-Fn (or a mutant thereof) solution diluted at 10 μg/mL was added at 50 μL/well to 96-well plates, which were then allowed to stand (4° C., 16 hours).
(2) The supernatant of each well was removed with an aspirator, a 1% BSA solution in Tris-buffered saline (TBS; 20 mM Tris-HCl, 150 mM NaCl, pH 7.5) was added at 200 μL/well, and the plates were allowed to stand at room temperature for 1 hour.
(3) A P20.1 antibody solution (2 to 5 μg/mL) was added at 50 μL/well and the plates were allowed to stand at room temperature for 1 hour.
(4) Each well was washed with 200 μL of TBS 3 times.
(5) A peroxidase-labeled anti-mouse IgG (1/1000 dilution) was added at 50 μL/well, and the plates were allowed to stand at room temperature for 30 minutes.
(6) Each well was washed with 200 μL of TBS 4 times.
(7) A peroxidase chromogenic substrate (ABTS) was added at 100 μL/well, the plates were allowed to stand at room temperature for 5 to 10 minute, and then the absorbance of the solution in each well was measured at 405 nm.
The ELISA results of 5 different tag peptide fusion proteins having the P4 peptide attached to the N terminus of the Fn are shown in FIG. 5. […]

P20.1 antibody [2] = test: Sandwich ELISA, P20.1 antibody as detection antibody; assay type: binding, mouse; details: diluted cell supernatant, biotinylated P20.1 antibody 5 μg/mL, absorbance 405 nm
Protocol: The anti-hGH monoclonal antibody HGH-B was immobilized to microtiter plates. After blocking, the supernatant of cells transiently expressing the hGH-γC-P4 fusion protein having P4×1, P4×3 or P4×5 linked thereto (see FIG. 3, FIG. 4 and SEQ ID NO: 15) was added at various dilution ratios to wells of the plates, which were then allowed to stand at 4° C. overnight. In this way, such a fusion protein was captured by the antibody on the plates. After washing, a biotinylated P20.1 antibody (5 μg/mL) was allowed to react with the fusion protein at room temperature for 30 minutes. After 3-time washing, peroxidase-labeled streptavidin (Zymed) was added to the plates, which were then allowed to stand at room temperature for additional 15 minutes. After addition of peroxidase substrate (ABTS), the absorbance at 405 nm was measured.

P20.1 antibody-Sepharose = test: Pull-down efficiency with P20.1 antibody-immobilized beads; assay type: binding, mouse; details: pull-down by P20.1 antibody-Sepharose
Protocol: Three different hGH-γC-P4 fusion proteins, which have P4×1, P4×3 or P4×5, were separately expressed in HEK293T cells. The fusion protein in the separate cell culture supernatant was quantified by the sandwich ELISA (which adopts a system of hGH antibody-mediated capture+anti-BAS serum-mediated detection, and is not dependent on the responsiveness to the P20.1 antibody) (before pull-down). Aside from this, to 1 mL of the cell culture supernatant, 20 μL of the P20.1 antibody-Sepharose (bead form) was added, and then the mixture was allowed to react at 4° C. for 1 hour. After the beads were precipitated by centrifugation, the fusion protein in the supernatant was quantified by the sandwich ELISA (which adopts a system of hGH antibody-mediated capture+anti-BAS serum-mediated detection, and is not dependent on the responsiveness to the P20.1 antibody) (after pull-down). The fusion protein purified with Ni-NTA agarose was used as a standard, and based on the standard curve, the fusion protein concentrations before and after pull-down by the P20.1 antibody were determined. As is clear from Table 4, 3 to 5 repeats of the P4 sequence achieves the binding efficiency of about 80%.

P20.1 antibody [3] = test: Kinetics analysis by surface plasmon resonance, P4 sequence repeats over P20.1 antibody-immobilized sensor chip; assay type: binding, mouse; details: hGH-γC fusion proteins, flow rate 20 μL/min, Biacore X-100
Protocol: For improvement of the efficacious affinity for the P20.1 antibody, tag peptide fusion proteins having a repeated sequence, specifically 1, 3 or 5 repeats of the P4 sequence (referred to as P4×1, P4×3 or P4×5, in the above order) were prepared (see the above (2-2)). These proteins were allowed to separately pass at a flow rate of 20 μL/min over the P20.1 antibody-immobilized sensor chip, and kinetics analysis was conducted using Biacore X-100 (GE Healthcare).

[4] = tested on: P4(20)-Fn protein-P20.1 antibody binding; test: Competitive dissociation by peptide (ELISA); details: peptide concentration of 0.1 mg/mL, 30 minutes
Protocol: For examination on whether an excess of free peptides can disrupt protein-P20.1 antibody binding, at the final washing step of the (3-1) ELISA experiment using the P4(20)-Fn protein, buffer solutions containing different concentrations of the P4(C8) peptide (8-residue peptide PRGYPGQV (SEQ ID NO: 20) synthesized by the Fmoc method) were added to wells and the plates were allowed to stand for 30 minutes.

[5] = tested on: P4×3-tagged hGH fusion protein bound to P20.1 antibody-Sepharose; test: Elution of P4×3-tagged hGH fusion protein from P20.1 antibody-Sepharose; details: in TBS, room temperature, 10 minutes
Protocol: With 8 mL of the culture supernatant of cells expressing the P4×3-tagged hGH fusion protein, 100 μL of the P20.1 antibody-Sepharose (0.2 mg in terms of the P20.1 antibody, bead form) was mixed, and then the mixture was allowed to react at 4° C. for 3 hours. After the reaction, the beads were washed with 3 mL of Tris-buffered saline (TBS; 20 mM Tris-HCl, 150 mM NaCl, pH 7.5), and 300 μL of an eluent as shown below was added to and mixed with the beads at room temperature for 10 minutes. The effluent obtained by each eluent was concentrated and then was subjected to SDS gel electrophoresis at an equal amount. For comparison, affinity binding was also performed using Ni-NTA beads on the same conditions as above, and the effluent obtained by use of imidazole as an eluent was analyzed simultaneously.
The above-mentioned numbers correspond to the lane numbers in FIG. 23 (a). “Ni” indicates the effluent from Ni-NTA beads. As shown in FIG. 23 (a), the tagged fusion protein which was bound to the P20.1 antibody-Sepharose was not only eluted with 0.1 mg/mL or more of the P4(C8) peptide, but also completely eluted by combined use of propylene glycol and sodium chloride. […]

P4(20)-Fn = molecular target: T1, P4(20)-Fn (Homo sapiens, UniProt P02751); test: Surface plasmon resonance analysis (Biacore): binding affinity of P20.1 antibody for P4 peptide sequence
T1 construct: the 9th to 10th region of the Fn3 domain of human fibronectin (185 residues); made in house; host or cells: pET11c vector
Protocol: For examination on the binding affinity of the P20.1 antibody for the P4 peptide sequence, the surface plasmon resonance analysis using Biacore was performed. After the P4(20)-Fn (see FIG. 1) purified in the (2-1) was biotinylated and then captured by a streptavidin-immobilized sensor chip, a purified P20.1 antibody was allowed to flow over the prepared sensor chip at various concentrations. […] Similarly, a commercially available Flag ([…] (SEQ ID NO: 19)) and corresponding antibody M2 were used for examination on the affinity of M2 for Flag-tagged Fn (Flag-Fn).

[6] = Phage display random screening of the peptide sequence recognizable by the P20.1 antibody; assay type: binding; details: panning with P20.1 antibody-immobilized magnetic beads
From the text: For extensive search for the peptide sequence recognizable by the P20.1 antibody, the phage display method was employed. The phagemid shown in FIG. 11 was constructed for insertion of the randomized 7-amino-acid peptide library (all of them have Tyr2 and Gln5 in common) into the N terminus of the gIII coat protein of M13 phage. As a result, the phage library of 10^7 members was obtained.
Through panning by use of P20.1 antibody-immobilized magnetic beads, a number of clones bound to the beads were obtained. The sequence of the variable region in these different clones was decoded by DNA sequencing, and the sequence pattern as shown in FIG. 12 was obtained. […] Namely, it can be said that the P20.1 antibody generally has a high affinity for the following peptide sequence: X1-Tyr2-Pro3-Gly4-Gln5-X6: SEQ ID NO:21 (wherein X1 is any amino acid residue; Pro3 may be an amino acid having a small side chain, such as S, V, C, A, T, E, G and D; and X6 is any hydrophobic amino acid). X-Ray Crystallography of the P20.1 Antibody Fab Fragment-Peptide Complex (5-1) Amino Acid Sequencing of the P20.1 Antibody Variable Region DNA Cloning from Hybridoma

[7] = P20.1 antibody flowed over biotinylated P4(20)-Fn captured on streptavidin sensor chip

## GYPGQV [P4 sequence]
P20.1 antibody [1]
  recognition by / responsiveness to the P20.1 antibody: enough for recognition by the P20.1 antibody

## P4 × 3: hGH/fibrinogen γC fusion protein tagged with 3 repeats of the P4 sequence GYPGQV
P20.1 antibody [2]
  signals in sandwich ELISA: dose-dependent signals were observed in 30-fold or less diluted supernatant
P20.1 antibody-Sepharose
  Binding efficiency: 78%

## P4: hGH/fibrinogen γC fusion protein tagged with 1 repeat of the P4 sequence GYPGQV
P20.1 antibody [3]
  affinity / binding capacity for the P20.1 antibody: extremely weak affinity
P20.1 antibody [2]
  signals in sandwich ELISA: only weak signals were detected in 3-fold or less diluted supernatant
P20.1 antibody-Sepharose
  Binding efficiency: 14%

## PRGYPGQV [P4(C8) peptide]
[4]
  dissociation of protein-P20.1 antibody binding by free peptide: almost complete dissociation
[5]
  peptide concentration that eluted the tagged fusion protein: ≥ 0.1 mg/mL

## P4 × 5: hGH/fibrinogen γC fusion protein tagged with 5 repeats of the P4 sequence GYPGQV
P20.1 antibody [3]
  affinity / binding capacity for the P20.1 antibody: further increased binding capacity
P20.1 antibody [2]
  signals in sandwich ELISA: dose-dependent signals were observed in 30-fold or less diluted supernatant
P20.1 antibody-Sepharose
  Binding efficiency: 80%

## GGDDSTPSILPAPRGYPGQVC [P4 peptide]
P20.1 antibody [1]
  recognition by / responsiveness to the P20.1 antibody: can be recognized by the P20.1 antibody

B1: P20.1 Ab: monoclonal antibody produced by mouse-mouse hybridoma P20.1 (FERM BP-11061), IgG1 isotype, λ light chains, against N-terminal 20 residues of human PAR4 (antibody, V domains shown)
VH: QIQLVQSGPEVQKPGETVRISCKASGYTFTTAGMQWVQKMPGKSLKWIGWINTRSGVPKYAEDFKGRFAFSLETSASIAYLHINNLKNEDTATYFCAREGPGFVYWGQGTLVTVSA
VL: QTVVTQESALTTSPGETVTLTCRSSTGVVTTSNYANWVQEKPDHLFTGLIVGTNNRVPGVPPRFSGSLIGDKAALTITGAQTEDEAIYFCALWYSNHWVFGGGTKLTVL
P4(20)-Fn; [7]
  Ka: 365000 M⁻¹ s⁻¹
  Kd(1/s): 0.00123 s⁻¹
P4(20)-Fn; P20.1 antibody flowed over biotinylated P4(20)-Fn captured on streptavidin sensor chip, read-out: KD
  Kd: 3.38 nM
P4(20)-Fn; affinity for the P4(20)-Fn, read-out: apparent dissociation equilibrium constant (Kd)
  Kd: ~3.4 nM
[6]
  peptide sequence required for recognition: requires the presence of tyrosine, glycine and glutamine at position 2, 4 and 5
